Several values for one entry are separate records, joined by “and”; a condition that tells them apart may be missing. Identical values can stand only once.
Tested on: PSMA-positive mCRPC participants
Assay: PSMAfore phase III: adverse events, serious adverse events, safety topics and deaths (safety set)
Type: in vivo, human
Conditions: DCO 2 Oct 2022
[1] = most common AEs (>10% in either arm)

Question: Which “Fatal serious AEs” value does the source give for O=C([O-])CN1CCN(CC(=O)[O-])CCN(CC(=O)NCC2CCC(C(=O)N[C@@H](Cc3ccc4ccccc4c3)C(=O)NCCCC[C@H](NC(=O)N[C@@H](CCC(=O)O)C(=O)O)C(=O)O)CC2)CCN(CC(=O)[O-])CC1.[177Lu+3] (stereo partly shown) [[177Lu]Lu-PSMA-617, lutetium (177Lu) vipivotide tetraxetan] here?
Answer: Its value is “Fatal serious AEs: 1.8% in [177Lu]Lu-PSMA-”.

Question: What about the “death during the study due to study indication” value of the same molecule?
Answer: The value was 4.4%.

Question: And the “most frequent serious adverse event: urinary tract infection” value?
Answer: The value was 1.8%.

Question: What about the “on-treatment deaths due to Study indication” value of the same molecule?
Answer: Its value is 0%.

Question: And the “subjects who received at least one dose and died during the study” value?
Answer: The value was 18 (8%) n (%).

Question: What about the “AEs leading to discontinuation, Treatment-related” value (ARDT prior to crossover) of the same molecule?
Answer: Its value is 1.8%.

Question: And the “Grade≥3 AEs, Treatment-related” value (ARDT prior to crossover)?
Answer: Its value is 6.6%.

Question: And the “Serious AEs, Treatment-related” value (ARDT prior to crossover)?
Answer: Its value is 2.2%.

Question: And the Anaemia [1]?
Answer: The Anaemia was 16.8%.

Question: What about the Arthralgia [1] of the same molecule?
Answer: The Arthralgia was 11.5%.

Question: What about the Asthenia [1] of the same molecule?
Answer: Its Asthenia is 23.9%.

Question: What about the Back pain [1] of the same molecule?
Answer: Its Back pain is 7.1%.

Question: And the COVID-19 [1]?
Answer: Its COVID-19 is 11.1%.

Question: And the Constipation [1]?
Answer: The Constipation was 15.5%.

Question: And the Decreased appetite [1]?
Answer: Its Decreased appetite is 12.8%.

Question: And the Diarrhoea [1]?
Answer: The Diarrhoea was 12.4%.

Question: And the Dry mouth [1]?
Answer: The Dry mouth was 44.7%.

Question: What about the Fatigue [1] of the same molecule?
Answer: Its Fatigue is 18.1%.

Question: What about the Nausea [1] of the same molecule?
Answer: Its Nausea is 25.2%.

Question: And the “On-treatment deaths: Number of subjects who died” value (safety set)?
Answer: Its value is 4 (1.8%) n (%) and 4 (1.8) n (%).

Question: What about the “On-treatment deaths: Other” value (safety set) of the same molecule?
Answer: Its value is 4 (1.8) n (%).

Question: What about the “On-treatment deaths: Study indication” value (safety set) of the same molecule?
Answer: The value was 0 n (%).

Question: And the “AE preferred term: Anaemia” value (safety set, All Grades)?
Answer: The value was 38 (16.8) n (%).

Question: And the “AE preferred term: Arthralgia” value (safety set, All Grades)?
Answer: The value was 26 (11.5) n (%).

Question: And the “AE preferred term: Asthenia” value (safety set, All Grades)?
Answer: Its value is 54 (23.9) n (%).

Question: And the “AE preferred term: Back pain” value (safety set, All Grades)?
Answer: The value was 16 (7.1) n (%).

Question: And the “AE preferred term: COVID-19” value (safety set, All Grades)?
Answer: Its value is 25 (11.1) n (%).

Question: And the “AE preferred term: Constipation” value (safety set, All Grades)?
Answer: Its value is 35 (15.5) n (%).

Question: What about the “AE preferred term: Decreased appetite” value (safety set, All Grades) of the same molecule?
Answer: Its value is 29 (12.8) n (%).

Question: What about the “AE preferred term: Diarrhoea” value (safety set, All Grades) of the same molecule?
Answer: Its value is 28 (12.4) n (%).

Question: And the “AE preferred term: Dry mouth” value (safety set, All Grades)?
Answer: Its value is 101 (44.7) n (%).

Question: What about the “AE preferred term: Fatigue” value (safety set, All Grades) of the same molecule?
Answer: The value was 41 (18.1) n (%).

Question: What about the “AE preferred term: Nausea” value (safety set, All Grades) of the same molecule?
Answer: Its value is 57 (25.2) n (%).

Question: What about the “Adverse events (subjects with at least one event)” value (safety set, All Grades) of the same molecule?
Answer: Its value is 202 (89.4) n (%).

Question: And the “Adverse events leading to discontinuation” value (safety set, All Grades)?
Answer: Its value is 9 (4.0) n (%).

Question: And the “Adverse events leading to discontinuation, Treatment-related” value (safety set, All Grades)?
Answer: The value was 4 (1.8) n (%).

Question: And the “Adverse events leading to dose adjustment” value (safety set, All Grades)?
Answer: The value was 5 (2.2) n (%).

Question: And the “Adverse events leading to dose interruption” value (safety set, All Grades)?
Answer: The value was 16 (7.1) n (%).

Question: And the “Adverse events requiring additional therapy” value (safety set, All Grades)?
Answer: The value was 121 (53.5) n (%).

Question: And the “Adverse events, Treatment-related” value (safety set, All Grades)?
Answer: The value was 170 (75.2) n (%).

Question: And the “Fatal serious adverse events” value (safety set, All Grades)?
Answer: Its value is 4 (1.8) n (%).

Question: What about the “Fatal serious adverse events, Treatment-related” value (safety set, All Grades) of the same molecule?
Answer: Its value is 0 n (%).

Question: What about the “Safety topic: Dry eye” value (safety set, All Grades) of the same molecule?
Answer: The value was 6 (2.7) n (%).

Question: What about the “Safety topic: Dry mouth” value (safety set, All Grades) of the same molecule?
Answer: Its value is 101 (44.7) n (%).

Question: What about the “Safety topic: Fractures” value (safety set, All Grades) of the same molecule?
Answer: Its value is 3 (1.3) n (%).

Question: And the “Safety topic: Hepatotoxicity” value (safety set, All Grades)?
Answer: Its value is 20 (8.8) n (%).

Question: And the “Safety topic: Intracranial haemorrhage” value (safety set, All Grades)?
Answer: Its value is 2 (0.9) n (%).

Question: What about the “Safety topic: Myelosuppression” value (safety set, All Grades) of the same molecule?
Answer: The value was 56 (24.8) n (%).

Question: What about the “Safety topic: QT prolongation” value (safety set, All Grades) of the same molecule?
Answer: Its value is 2 (0.9) n (%).

Question: And the “Safety topic: Radiotoxicity including inadvertent exposure” value (safety set, All Grades)?
Answer: Its value is 0 n (%).

Question: What about the “Safety topic: Renal toxicity” value (safety set, All Grades) of the same molecule?
Answer: Its value is 11 (4.9) n (%).

Question: What about the “Safety topic: Second primary malignancies” value (safety set, All Grades) of the same molecule?
Answer: Its value is 3 (1.3) n (%).

Question: And the “Serious AE preferred term: Anaemia” value (safety set, All Grades)?
Answer: Its value is 2 (0.9) n (%).

Question: And the “Serious AE preferred term: Haematuria” value (safety set, All Grades)?
Answer: The value was 0 n (%).

Question: What about the “Serious AE preferred term: Pain” value (safety set, All Grades) of the same molecule?
Answer: The value was 1 (0.4) n (%).

Question: And the “Serious AE preferred term: Spinal cord compression” value (safety set, All Grades)?
Answer: Its value is 2 (0.9) n (%).

Question: What about the “Serious AE preferred term: Urinary retention” value (safety set, All Grades) of the same molecule?
Answer: The value was 1 (0.4) n (%).

Question: And the “Serious AE preferred term: Urinary tract infection” value (safety set, All Grades)?
Answer: The value was 4 (1.8) n (%).

Question: And the “Serious adverse events (subjects with at least one event)” value (safety set, All Grades)?
Answer: Its value is 35 (15.5) n (%).

Question: And the “Serious adverse events, Treatment-related” value (safety set, All Grades)?
Answer: Its value is 5 (2.2) n (%).

Question: And the “AE preferred term: Anaemia” value (safety set, Grade >=3)?
Answer: Its value is 10 (4.4) n (%).

Question: And the “AE preferred term: Arthralgia” value (safety set, Grade >=3)?
Answer: Its value is 0 n (%).

Question: What about the “AE preferred term: Asthenia” value (safety set, Grade >=3) of the same molecule?
Answer: The value was 1 (0.4) n (%).

Question: What about the “AE preferred term: Back pain” value (safety set, Grade >=3) of the same molecule?
Answer: Its value is 2 (0.9) n (%).

Question: What about the “AE preferred term: COVID-19” value (safety set, Grade >=3) of the same molecule?
Answer: Its value is 1 (0.4) n (%).

Question: What about the “AE preferred term: Constipation” value (safety set, Grade >=3) of the same molecule?
Answer: Its value is 1 (0.4) n (%).

Question: And the “AE preferred term: Decreased appetite” value (safety set, Grade >=3)?
Answer: Its value is 0 n (%).

Question: What about the “AE preferred term: Diarrhoea” value (safety set, Grade >=3) of the same molecule?
Answer: The value was 0 n (%).

Question: And the “AE preferred term: Dry mouth” value (safety set, Grade >=3)?
Answer: The value was 1 (0.4) n (%).

Question: And the “AE preferred term: Fatigue” value (safety set, Grade >=3)?
Answer: The value was 0 n (%).

Question: And the “AE preferred term: Nausea” value (safety set, Grade >=3)?
Answer: Its value is 0 n (%).

Question: What about the “Adverse events (subjects with at least one event)” value (safety set, Grade >=3) of the same molecule?
Answer: Its value is 53 (23.5) n (%).

Question: And the “Adverse events leading to discontinuation” value (safety set, Grade >=3)?
Answer: The value was 6 (2.7) n (%).

Question: And the “Adverse events leading to discontinuation, Treatment-related” value (safety set, Grade >=3)?
Answer: Its value is 3 (1.3) n (%).

Question: What about the “Adverse events leading to dose adjustment” value (safety set, Grade >=3) of the same molecule?
Answer: Its value is 1 (0.4) n (%).

Question: And the “Adverse events leading to dose interruption” value (safety set, Grade >=3)?
Answer: Its value is 9 (4.0) n (%).

Question: What about the “Adverse events requiring additional therapy” value (safety set, Grade >=3) of the same molecule?
Answer: Its value is 34 (15.0) n (%).

Question: What about the “Adverse events, Treatment-related” value (safety set, Grade >=3) of the same molecule?
Answer: The value was 15 (6.6) n (%).

Question: What about the “Fatal serious adverse events” value (safety set, Grade >=3) of the same molecule?
Answer: Its value is 4 (1.8) n (%).

Question: What about the “Fatal serious adverse events, Treatment-related” value (safety set, Grade >=3) of the same molecule?
Answer: Its value is 0 n (%).

Question: And the “Safety topic: Dry eye” value (safety set, Grade >=3)?
Answer: The value was 0 n (%).

Question: And the “Safety topic: Dry mouth” value (safety set, Grade >=3)?
Answer: Its value is 1 (0.4) n (%).

Question: What about the “Safety topic: Fractures” value (safety set, Grade >=3) of the same molecule?
Answer: Its value is 1 (0.4) n (%).

Question: And the “Safety topic: Hepatotoxicity” value (safety set, Grade >=3)?
Answer: Its value is 8 (3.5) n (%).

Question: What about the “Safety topic: Intracranial haemorrhage” value (safety set, Grade >=3) of the same molecule?
Answer: The value was 1 (0.4) n (%).

Question: What about the “Safety topic: Myelosuppression” value (safety set, Grade >=3) of the same molecule?
Answer: The value was 19 (8.4) n (%).

Question: What about the “Safety topic: QT prolongation” value (safety set, Grade >=3) of the same molecule?
Answer: The value was 1 (0.4) n (%).

Question: And the “Safety topic: Radiotoxicity including inadvertent exposure” value (safety set, Grade >=3)?
Answer: The value was 0 n (%).

Question: And the “Safety topic: Renal toxicity” value (safety set, Grade >=3)?
Answer: The value was 2 (0.9) n (%).

Question: And the “Safety topic: Second primary malignancies” value (safety set, Grade >=3)?
Answer: The value was 1 (0.4) n (%).

Question: What about the “Serious AE preferred term: Anaemia” value (safety set, Grade >=3) of the same molecule?
Answer: Its value is 1 (0.4) n (%).

Question: What about the “Serious AE preferred term: Haematuria” value (safety set, Grade >=3) of the same molecule?
Answer: The value was 0 n (%).

Question: And the “Serious AE preferred term: Pain” value (safety set, Grade >=3)?
Answer: The value was 1 (0.4) n (%).

Question: What about the “Serious AE preferred term: Spinal cord compression” value (safety set, Grade >=3) of the same molecule?
Answer: The value was 2 (0.9) n (%).

Question: And the “Serious AE preferred term: Urinary retention” value (safety set, Grade >=3)?
Answer: Its value is 1 (0.4) n (%).

Question: What about the “Serious AE preferred term: Urinary tract infection” value (safety set, Grade >=3) of the same molecule?
Answer: Its value is 3 (1.3) n (%).

Question: And the “Serious adverse events (subjects with at least one event)” value (safety set, Grade >=3)?
Answer: The value was 30 (13.3) n (%).

Question: What about the “Serious adverse events, Treatment-related” value (safety set, Grade >=3) of the same molecule?
Answer: Its value is 4 (1.8) n (%).

Question: What about the “On-treatment deaths: COVID-19 pneumonia” value (safety set, preferred term) of the same molecule?
Answer: The value was 1 (0.4) n (%).

Question: What about the “On-treatment deaths: Cardiac arrest” value (safety set, preferred term) of the same molecule?
Answer: The value was 1 (0.4) n (%).
